According to patent EP4692088A1, “COMPOUND ACTING AS WRN HELICASE INHIBITOR” (SHANGHAI JEYOU PHARMACEUTICAL CO., LTD., priority 2023, dated 2024):
Where two headings read alike, the source gives them in different places.

Key:
SW620 cells = test: Cell proliferation assay (CellTiter-Glo), SW620; assay type: cell-based; conditions: Homo sapiens, 120 h, SW-620 (MSS), 5 days incubation
Procedure: (§1) SW48 cells were plated at a density of 1,500 cells/well, and LoVo, HCT116, and SW620 cells were plated at a density of 800 cells/well in a 96-well cell culture plate, and cultured in a 37°C incubator overnight. The test compounds, which were gradient-diluted with DMSO, were added, and after incubation for 5 days, cell viability was detected using a CellTiter-Glo kit. The CellTiter-Glo reagent was equilibrated to room temperature, and an appropriate amount was added to the cell plate, followed by shaking at room temperature for 12 min. The luminescence signal was detected using a microplate reader.
(§2) The luminescence signal values of the DMSO-treated wells and cell-free wells were used as negative and positive controls, respectively, to calculate the inhibition rate of compound on cell proliferation. The concentration-inhibition curve was fitted using the "log(inhibitor) vs. normalized response -- Variable slope" equation in GraphPad Prism 8 software to obtain the IC50. [formula]

HCT116 cells = test: Cell proliferation assay (CellTiter-Glo), HCT116; assay type: cell-based; conditions: Homo sapiens, 120 h, HCT-116, 5 days incubation
Procedure: as §1, §2

SW48 cells = test: Cell proliferation assay (CellTiter-Glo), SW48; assay type: cell-based; conditions: Homo sapiens, SW48, 120 h, SW-48, 5 days incubation
Procedure: as §1, §2

LoVo = test: Cell proliferation assay (CellTiter-Glo), LoVo; assay type: cell-based; conditions: Homo sapiens, 120 h, 5 days incubation
Procedure: as §1, §2

WRN enzyme = target: T1, WRN enzyme (Homo sapiens, UniProt Q14191); test: biochemical
T1 construct: host or cells: eukaryotic cells (not further specified)
T1 sequence (Q14191 whole entry): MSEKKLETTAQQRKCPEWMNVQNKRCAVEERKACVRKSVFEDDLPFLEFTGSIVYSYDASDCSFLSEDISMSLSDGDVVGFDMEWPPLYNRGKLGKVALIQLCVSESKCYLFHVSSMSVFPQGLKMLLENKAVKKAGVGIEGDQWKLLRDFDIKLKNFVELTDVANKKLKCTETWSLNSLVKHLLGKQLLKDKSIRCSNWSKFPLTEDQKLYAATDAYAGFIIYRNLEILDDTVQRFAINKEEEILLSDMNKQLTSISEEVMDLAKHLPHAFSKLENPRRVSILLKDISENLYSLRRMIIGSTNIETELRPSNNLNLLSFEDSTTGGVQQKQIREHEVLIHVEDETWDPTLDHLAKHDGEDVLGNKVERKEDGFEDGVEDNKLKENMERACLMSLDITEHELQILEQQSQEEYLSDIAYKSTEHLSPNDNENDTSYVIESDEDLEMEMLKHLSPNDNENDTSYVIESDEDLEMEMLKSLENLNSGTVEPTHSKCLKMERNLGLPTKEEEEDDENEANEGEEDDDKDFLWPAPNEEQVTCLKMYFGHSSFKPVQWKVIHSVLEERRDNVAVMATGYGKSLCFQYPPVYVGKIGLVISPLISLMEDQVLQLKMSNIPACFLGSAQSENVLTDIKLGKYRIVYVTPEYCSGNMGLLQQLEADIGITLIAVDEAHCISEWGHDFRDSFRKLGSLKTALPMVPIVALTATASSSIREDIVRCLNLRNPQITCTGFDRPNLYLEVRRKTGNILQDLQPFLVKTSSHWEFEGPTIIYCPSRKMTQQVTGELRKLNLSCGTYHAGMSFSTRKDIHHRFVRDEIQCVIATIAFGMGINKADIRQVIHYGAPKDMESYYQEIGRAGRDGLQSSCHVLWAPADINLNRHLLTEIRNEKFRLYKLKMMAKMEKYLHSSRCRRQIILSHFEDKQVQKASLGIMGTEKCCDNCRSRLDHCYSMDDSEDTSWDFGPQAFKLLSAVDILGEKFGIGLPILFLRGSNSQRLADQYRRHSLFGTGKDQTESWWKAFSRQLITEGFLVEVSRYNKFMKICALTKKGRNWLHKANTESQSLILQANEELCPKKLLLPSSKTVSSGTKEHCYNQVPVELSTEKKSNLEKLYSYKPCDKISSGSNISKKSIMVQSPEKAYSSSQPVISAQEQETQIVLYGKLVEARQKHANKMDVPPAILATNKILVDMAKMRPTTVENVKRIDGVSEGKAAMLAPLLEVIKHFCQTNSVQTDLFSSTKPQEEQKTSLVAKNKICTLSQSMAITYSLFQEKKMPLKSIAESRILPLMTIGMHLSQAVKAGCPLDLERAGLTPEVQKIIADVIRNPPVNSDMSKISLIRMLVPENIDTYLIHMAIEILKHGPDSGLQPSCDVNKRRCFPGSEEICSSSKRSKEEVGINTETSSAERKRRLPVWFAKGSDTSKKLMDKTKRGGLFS
Procedure: The WRN enzyme used in the experiment has a His-TEV tag at the N-terminus and is expressed in eukaryotic cells with a purity of 90%. The assay kit (ADP-Glo™ Kinase Assay) was purchased from Promega (Cat. No. V9101), aliquoted, and then stored in the refrigerator at -40°C. This kit could quantitatively detect the amount of ADP generated in the reaction. WRN hydrolyzed ATP to produce ADP. The ADP-Glo reagent was added to deplete excess ATP in the reaction system, followed by the addition of Kinase Detection Reagent to convert the ADP produced by the reaction into ATP and produce chemiluminescence. The enzyme activity of WRN can be reflected by detecting the chemiluminescence signal using a microplate reader.
Single-stranded DNA was annealed to form double-stranded DNA. 5× Annealing Buffer: 50 mM Tris pH 8.0, 100 mM NaCl. Annealing program: 95°C, 5 min.
2× WRN enzyme (1 nM) and 2× substrate (1 nM double-stranded DNA, 100 µM ATP) were prepared using a buffer (20 mM Bicine (pH 7.5), 10 mM KCl, 10 mM MgCl2, 0.005% BSG, 0.002% Tween 20, 1 mM TCEP). The test compound was dissolved in DMSO to 10 mM and was gradient-diluted using a 96-well V-bottom plate. First, 25 µL of 2× WRN enzyme and 0.5 µL of compound were added to a 96-well plate and incubated at room temperature for 30 min. Then, 25 µL of 2× substrate was added, and the reaction was carried out at room temperature for 60 min. 5 µL was taken from the reaction plate and transferred to a 384-well plate for detection. 5 µL of ADP-Glo reagent was added and incubated at room temperature for 60 min, followed by the addition of 10 µL of Kinase Detection Reagent and incubation at room temperature for 40 min. The chemiluminescence signal was detected using a microplate reader.

[1] = read-out: WRN helicase activity (IC50 nM)

| SMILES | IC50 (SW620 cells) | IC50 (HCT116 cells) | IC50 (SW48 cells) | IC50 (LoVo) | IC50 (WRN enzyme) | IC50 (WRN enzyme; [1]) |
| --- | --- | --- | --- | --- | --- | --- |
| CCc1c(N2CCN(C(=O)c3ncnc(C)c3O)CC2)c(=O)c2nn(C3=CCOCC3)cc2n1CC(=O)Nc1ccc(C(F)(F)F)cc1Cl [Example 5] | > 25000 nM | 1580 nM | 943 nM | 2710 nM | – | – |
| CCc1c(N2CCN(C(=O)c3ncccc3O)CC2)c(=O)c2nn(C3=CCOCC3)cc2n1CC(=O)Nc1ccc(C(F)(F)F)cc1Cl [Example 6] | > 25000 nM | – | 324 nM | – | 134 nM | – |
| CCc1c(N2CCN(C(=O)c3ncnc(C)c3O)CC2)c(=O)c2nn(C3=CCOCC3)nc2n1CC(=O)Nc1ccc(C(F)(F)F)cc1C [Example 8] | > 25000 nM | – | 133 nM | – | 118 nM | – |
| CCc1c(N2CCN(C(=O)c3ncnc(C)c3O)CC2)c(=O)c2nn(C3=CCOCC3)nc2n1CC(=O)Nc1ccc(C(F)(F)F)cc1F [Example 9] | – | – | – | – | – | 94.9 nM |
| CCc1c(C2=CCN(C(=O)c3ncnc(C)c3O)CC2)c(=O)c2cn(C3=CCOCC3)nc2n1CC(=O)Nc1ccc(C(F)(F)F)cc1Cl [Example 10] | > 25000 nM | 552 nM | 331 nM | 871 nM | 238 nM | – |
| CCc1c(N2CCN(C(=O)c3ncnc(C)c3O)CC2)c(=O)c2nn(C3=CCN(S(=O)(=O)C4CC4)CC3)cc2n1CC(=O)Nc1ccc(C(F)(F)F)cc1Cl [Example 11] | – | – | – | – | – | 65.3 nM |
| CCc1c(N2CCN(C(=O)c3ncnc(C)c3O)CC2)c(=O)c2nn(C3=CCOCC3)cc2n1CC(=O)Nc1ccc(S(F)(F)(F)(F)F)cc1 [Example 12] | > 25000 nM | – | 317 nM | – | 86 nM | – |
| CCc1c(N2CCN(C(=O)c3ncnc(C)c3O)CC2)c(=O)c2nn(C3=CCOCC3)nc2n1CC(=O)Nc1ncc(C(F)(F)F)cc1Cl [Example 13] | > 25000 nM | 435 nM | – | – | 104 nM | – |
| CCc1c(N2CCN(C(=O)c3ncnc(C)c3O)CC2)c(=O)c2nn(C3=CCOCC3)nc2n1CC(=O)Nc1cc(Cl)c(C(F)(F)F)cc1C [Example 14] | > 25000 nM | – | 42.4 nM | – | 30.8 nM | – |
| CCc1c(N2CCN(C(=O)c3ncnc(C)c3O)CC2)c(=O)c2nn(C3=CCOCC3)nc2n1CC(=O)Nc1ccc2c(c1)CC2 [Example 16] | > 25000 nM | – | 148 nM | – | 42.6 nM | – |
| CCc1c(N2CCN(C(=O)c3ncnc(C)c3O)CC2)c(=O)c2nn(C3=CCOCC3)nc2n1CC(=O)Nc1ccc2c(c1)CCC2 [Example 17] | > 25000 nM | – | 126 nM | – | 34.7 nM | – |
| CCc1c(N2CCN(C(=O)c3ncncc3O)CC2)c(=O)c2nn(C3=CCOCC3)nc2n1CC(=O)Nc1ccc(C(F)(F)F)cc1Cl [Example 18] | > 25000 nM | – | 51.1 nM | – | 64.3 nM | – |
| CCc1c(N2CCN(C(=O)c3ncccc3O)CC2)c(=O)c2nn(C3=CCOCC3)nc2n1CC(=O)Nc1cc(F)c(C(F)(F)F)cc1Cl [Example 19] | 20700 nM | – | 60.9 nM | – | 44.3 nM | – |
| CCc1c(N2CCN(C(=O)c3ncccc3O)CC2)c(=O)c2nn(C3=CCOCC3)nc2n1CC(=O)Nc1ccc(C(F)(F)F)cc1Cl [Example 20] | 23700 nM | – | 33.8 nM | – | 35.5 nM | – |
| CCc1c(N2CCN(C(=O)c3ncnc(C)c3O)CC2)c(=O)c2nn(C3=CCOCC3)nc2n1CC(=O)Nc1ccc(S(F)(F)(F)(F)F)cc1 [Example 21] | – | – | – | – | – | 24.4 nM |
| CCc1c(N2CCN(C(=O)c3ncnc(C)c3O)CC2)c(=O)c2nn(C3=CCOCC3)nc2n1CC(=O)Nc1cc(F)c(C(F)(F)F)cc1F [Example 23] | > 25000 nM | – | 102 nM | – | 41.9 nM | – |
